Experimental data reported in PubChem BioAssay AID1549 (Sanford-Burnham Center for Chemical Genomics, 2009).
Calls of active or inactive are those of the source. No rule for the calls is given here.

Biological target: Influenza A virus M2 proton channel (A/TW/4845/1999 H1N1)
Test: M2 proton channel binding, NMR based, influenza A virus H1N1 strain (AID 1549)
Details: NMR binding screen, M2 protein

Structure (SMILES) | Kd
Cc1ccc(NC(=O)c2ccccc2)s1 | > 4 mM (inactive)
Cn1c(=O)n(CC(=O)Nc2cccnc2)c2ccccc21 | > 4 mM (inactive)
CCn1nccc1C(=O)Nc1ccc(Cl)cc1Cl | > 4 mM (inactive)
Nc1cccc(F)c1-c1ncon1 | > 4 mM (inactive)
Cc1cc(C(=O)NCc2ccccc2Br)no1 | > 4 mM (inactive)
N#Cc1cc2c(nc1SCc1ccncc1)CCC2 | > 4 mM (inactive)
C/C=C(\C)C(=O)O[C@H]1C[C@@H](OC(C)=O)[C@@]2(C(=O)OC)CO[C@@H]3C2[C@]12CO[C@](O)(C(=O)OC)[C@H]2[C@](C)(C12O[C@@]1(C)[C@H]1C[C@@H]2OC2OC=C[C@@]21O)[C@@H]3O (some centres not stated) | > 4 mM (inactive)
Nc1ccc(-c2csnn2)cc1 | > 4 mM (inactive)
Fc1cc2nccnc2cc1N1CCSCC1 | > 4 mM (inactive)
CSc1nnc2c(n1)OC=Nc1ccccc1-2 | > 4 mM (inactive)
Cn1ncc(NC(=O)Nc2ccc(F)cc2F)c1C(N)=O | > 4 mM (inactive)
Cn1c(=O)n(C)c2nc([N+](=O)[O-])c(Cl)cc21 | > 4 mM (inactive)
NC(=O)C(=O)NCc1ccc(Cl)cc1 | > 4 mM (inactive)
Cc1cc2ncc(C(=O)O)c(C)n2n1 | > 4 mM (inactive)
COc1ccc2c(c1OC)C(=O)O[C@@H]2[C@@H]1c2cc3c(cc2CCN1C)OCO3 | > 4 mM (inactive)
COc1cc2cc3c4cc(OC)c(OC)cc4cc[n+]3c(C)c2cc1OC | > 4 mM (inactive)
CC(=O)NCCc1cc2ccc(C)c(C)c2[nH]c1=O | > 4 mM (inactive)
Nc1ccc(N2CCOCC2)cc1 | > 4 mM (inactive)
N#Cc1nc(N2CCCCC2)nc(N2CCOCC2)n1 | > 4 mM (inactive)
c1ccc(-c2n[nH]c(-c3ccccn3)n2)nc1 | > 4 mM (inactive)
CC(=O)Nc1cc(S(=O)(=O)N(C)C)ccc1Cl | > 4 mM (inactive)
CC(CC(=O)O)n1cccn1 (configuration not stated) | > 4 mM (inactive)
CC(C)Nc1ncnc2c1nnn2C | > 4 mM (inactive)
COc1cc2nc[nH]c(=O)c2cc1OC | > 4 mM (inactive)

Structure (SMILES) | Kd
O=C(O)c1ccc2c(c1)CCO2 | > 4 mM (inactive)
O=C(O)c1cnc2sc3ccccc3n2c1=O | > 4 mM (inactive)
Cc1nc(-c2ccccc2)sc1C(N)=O | > 4 mM (inactive)
Cn1c(SCC(=O)NCCO)nc2ccccc2c1=O | > 4 mM (inactive)
Nc1cccc(S(=O)(=O)N2CCCC2)c1 | > 4 mM (inactive)
Cc1ccc(C(=O)N2CCC(C(N)=O)CC2)c(Cl)c1 | > 4 mM (inactive)
O=C1CC(=O)N(Cc2ccco2)C(=S)N1 | > 4 mM (inactive)
C=CC1=C(C)/C(=C/c2[nH]c(Cc3[nH]c(/C=C4\NC(=O)C(C)=C4C=C)c(C)c3CCC(=O)O)c(CCC(=O)O)c2C)NC1=O | > 4 mM (inactive)
Cc1ncoc1C(=O)Nc1ncc([N+](=O)[O-])s1 | > 4 mM (inactive)
CC(C)Nc1nc2n(c(=O)n1)CCN2C(C)C | > 4 mM (inactive)
COC(=O)Cc1cccc(OC)c1 | > 4 mM (inactive)
CCOC(=O)C1CCN(Cc2ccccc2)CC1=O (configuration not stated) | > 4 mM (inactive)
CCc1c(C)[nH]c(=S)c(C(N)=O)c1C | > 4 mM (inactive)
CC(=O)Nn1cc2c(=O)n(C)c(=O)n(C)c2c1 | > 4 mM (inactive)
c1ccc(-n2ncc3c(NCc4ccco4)ncnc32)cc1 | > 4 mM (inactive)
CC1(C)Cc2nc3[nH]c(=S)[nH]c(=O)c3cc2CO1 | > 4 mM (inactive)
Cc1nnc(Nc2cccnc2)[nH]c1=O | > 4 mM (inactive)
O=C1CC(NCc2ccco2)C(=O)NN1 (configuration not stated) | > 4 mM (inactive)
O=C(C1CCC(C(=O)N2CCCC2)CC1)N1CCCC1 (configuration not stated) | > 4 mM (inactive)
Cc1nccc(-c2cccc(N)c2)n1 | > 4 mM (inactive)
O=C(O)CSc1nc2ccccc2c(=O)[nH]1 | > 4 mM (inactive)
CC1=C(CCC(=O)O)c2cc3nc(cc4[nH]c(cc5[nH]c(cc1n2)c(C)c5C(C)O)c(C)c4C(C)O)C(C)=C3CCC(=O)O (configuration not stated) | > 4 mM (inactive)
Oc1ccc(C(=S)N2CCCCC2)cc1Cl | > 4 mM (inactive)
Cc1nc2ccc(F)cc2cc1C(=O)NCc1ccco1 | > 4 mM (inactive)

Structure (SMILES) | Kd
C/C=C/C(=O)Nc1ccc(NC(C)=O)cc1 | > 4 mM (inactive)
CN1CCN(CC(=O)Nc2ccccc2)CC1 | > 4 mM (inactive)
O=C1N=c2ccccc2=C1c1[nH]c(=S)[nH]c1O | > 4 mM (inactive)
O=C(O)c1cc(O)c(O)c(O)c1 | > 4 mM (inactive)
O=S(=O)(Nc1ccc2c(c1)OCCO2)c1cccs1 | > 4 mM (inactive)
CC(=O)NCc1nc2ccccc2[nH]1 | > 4 mM (inactive)
NC(=O)N1CCc2ccccc21 | > 4 mM (inactive)
O=C1NC(=Nc2ccc(O)cc2)S/C1=C/c1ccco1 | > 4 mM (inactive)
CN1CCN(C2CCN(Cc3ccccc3)CC2)CC1 | > 4 mM (inactive)
O=C(NC(=S)NN1CCOCC1)c1cccs1 | > 4 mM (inactive)
COc1cc2c(cc1OC)[C@@H]1C(=O)c3ccc(OC)c(CC=C(C)C)c3O[C@@H]1CO2 | > 4 mM (inactive)
CC(=O)Nc1cc2c(cc1C(=O)C(C)C)OCCO2 | > 4 mM (inactive)
CC(=O)OC1CCC23C(=O)OC45CCC(C6=CC(=O)OC6)C4(C)CCC2C5CCC3(O)C1 (configuration not stated) | > 4 mM (inactive)
Cc1cc(=O)n2[nH]cnc2n1 | > 4 mM (inactive)
CC(=O)Nc1ccc(Oc2nc(C)cc(C)n2)cc1 | > 4 mM (inactive)
Oc1ccc(-n2ccnc2)cc1 | > 4 mM (inactive)
CC(C)(C)Cc1nc(-c2ccccn2)no1 | > 4 mM (inactive)
O=C(O)CC1NCCNC1=O (configuration not stated) | > 4 mM (inactive)
CC1(C)C(=O)C=C[C@@]2(C)C1C=C[C@]1(C)C2CC[C@@]2(C)[C@H](c3ccoc3)OC(=O)C3OC321 (some centres not stated) | > 4 mM (inactive)
CC(C)=CCC/C(C)=C/CC/C(C)=C/CC/C(C)=C/CC/C(C)=C/CC/C(C)=C/CC/C(C)=C/CC/C(C)=C/CC/C(C)=C/CO | > 4 mM (inactive)
O=C1CSC(=Nc2ccc(F)cc2)N1 | > 4 mM (inactive)
O=C1CSC(=Nc2ccc(C(=O)O)cc2)N1 | > 4 mM (inactive)
CN1CCCn2c1nc1c2c(=O)[nH]c(=O)n1C | > 4 mM (inactive)
Cc1ccccc1NC(=S)NCCO | > 4 mM (inactive)

Structure (SMILES) | Kd
COC(=O)[C@@H]1OC(=O)[C@H]2O[C@@]23[C@@]1(C)CCC1[C@@]2(C)CCC(=O)C(C)(C)C2C[C@@H](OC(C)=O)[C@]13C (some centres not stated) | > 4 mM (inactive)
Cc1occc1C(=O)Nc1ccc(C(N)=O)cc1 | > 4 mM (inactive)
CCOC(=O)c1[nH]cnc1C(=O)OC(C)C | > 4 mM (inactive)
Cc1nc(-c2ccc(NS(C)(=O)=O)cc2)cs1 | > 4 mM (inactive)
c1ccc(-c2nsc(N3CCNCC3)n2)cc1 | > 4 mM (inactive)
CN(C)S(=O)(=O)c1ccccc1C#N | > 4 mM (inactive)
CCC1C(=O)OCC1Cc1cncn1C (configuration not stated) | > 4 mM (inactive)
CN1C(=O)/C(=C/c2ccccc2O)NC1=S | > 4 mM (inactive)
COc1cc(O)c2c(=O)c(O)c(-c3ccc(O)c(O)c3)oc2c1 | > 4 mM (inactive)
O=S1(=O)CCC(NC(=S)N2CCCCC2)C1 (configuration not stated) | > 4 mM (inactive)
COc1cc2c(cc1OC)Cc1cc(OC)c(OC)cc1Cc1cc(OC)c(OC)cc1C2 | > 4 mM (inactive)
COc1ccc(C)cc1S(=O)(=O)N1CCCCC1 | > 4 mM (inactive)
NC(CC(=O)O)c1ccccc1 (configuration not stated) | > 4 mM (inactive)
CN1CCCC1C(=O)O (configuration not stated) | > 4 mM (inactive)
c1ccc2c(c1)ncn2CCn1cnc2ccccc21 | > 4 mM (inactive)
NC1=NC(=O)/C(=C\c2ccccc2)S1 | > 4 mM (inactive)
O=C(O)CC[N+](=O)[O-] | > 4 mM (inactive)
O=c1[nH]c(=S)[nH]c2c1CCC2 | > 4 mM (inactive)
CN(C(=O)NC1CCS(=O)(=O)C1)C1CCCCC1 (configuration not stated) | > 4 mM (inactive)
O=C(O)c1ccc2nsnc2c1 | > 4 mM (inactive)
Cc1cccc(-c2nnc(-c3ccc(N)cc3)o2)c1 | > 4 mM (inactive)
O=c1cnnc(NCc2ccc(F)cc2)[nH]1 | > 4 mM (inactive)
c1cc(CNc2ccc3c(c2)OCCO3)ccn1 | > 4 mM (inactive)
O=C1c2ccccc2C(=O)N1Cc1ccco1 | > 4 mM (inactive)

Structure (SMILES) | Kd
O=C1C=C(Nc2ccccc2O)c2ccccc2C1=O | > 4 mM (inactive)
COc1cccc(N2CCN(C(=O)c3cccnc3)CC2)c1 | > 4 mM (inactive)
CC(=O)OC[C@H]1O[C@@H](Oc2cc(OC(C)=O)c3c(=O)cc(-c4ccc(OC(C)=O)cc4)oc3c2)[C@H](OC(C)=O)[C@@H](OC(C)=O)[C@@H]1OC(C)=O | > 4 mM (inactive)
CCOc1nc(C)ccc1-c1noc(-c2ccncc2)n1 | > 4 mM (inactive)
CCN1CCC(NC2CCCCNC2=O)CC1 (configuration not stated) | > 4 mM (inactive)
COC(CC(=O)O)c1nc2ccccc2s1 (configuration not stated) | > 4 mM (inactive)
CN(C)N1C(=O)C2CCCCC2C1=O (configuration not stated) | > 4 mM (inactive)
CSc1nc2nccc(N)n2n1 | > 4 mM (inactive)
COc1c(C(=O)N2CCCC2)ccc2ccccc12 | > 4 mM (inactive)
CNC(=O)c1c(O)c2ccccc2[nH]c1=O | > 4 mM (inactive)
Cc1cc(=O)c2c(O)c(C)c(O)cc2o1 | > 4 mM (inactive)
Cc1cc(C)nc(N(C#N)Cc2ccccc2)n1 | > 4 mM (inactive)
Cc1ccc(-c2nc(N)n(C(=O)c3cccnc3)n2)cc1 | > 4 mM (inactive)
NCc1ccccc1N1CCOCC1 | > 4 mM (inactive)
CC(=O)O[C@]1(C)CC[C@@]23CC1C(C)(C)[C@@H]2CC[C@H]3C | > 4 mM (inactive)
Cc1cc(=O)c2ccccc2n1CC(N)=O | > 4 mM (inactive)
O=C(c1ccco1)N1CCN(c2ccc(Cl)cc2)CC1 | > 4 mM (inactive)
CC(=O)NCC1(c2ccccc2)CCOCC1 | > 4 mM (inactive)
N#CCCn1ccnc1-c1ccccc1 | > 4 mM (inactive)
O=S(=O)(c1ccc(F)c(Cl)c1)N1CCCC1 | > 4 mM (inactive)
O=C(Cc1cccs1)N1CCOCC1 | > 4 mM (inactive)
